Test results as given in patent US10465227B2, “Microbial testing devices, methods of making microbial testing devices and methods of identifying novel antimicrobial drug candidates” (BOARD OF REGENTS, THE UNIVERSITY OF TEXAS SYSTEM, priority 2010, dated 2019).

Test system: C. albicans biofilms
Experiment: Susceptibility testing of preformed C. albicans biofilms in CaBChip (FUN 1 fluorescence)
Type: cell-based, Candida albicans strain SC5314
Details: 24 h preformed biofilms on CaBChip, 24 h drug exposure; for SMIC50 / SMIC80: FUN 1 staining
Method: A four-factor, two-level factorial design was performed using MINITAB (Minitab Solutions Inc., State College, Pa.) and DESIGN EXPERT (Stat-Ease Inc., Minneapolis, Minn.) software to obtain optimal conditions of media concentration, seeding density, collagen concentration and PSMA coating concentration for wash-resistant biofilm growth on the CaBChip. The response (output) metrics were true biofilm yield and robust attachment, measured using microarray scanner and light microscope. For preparation of inocula for printing and biofilm formation in the CaBChip, cells harvested from overnight YPD cultures were washed twice in sterile phosphate buffered saline (PBS; 10 mM phosphate buffer, 2.7 mM potassium chloride, 137 mM sodium chloride (pH 7.4) (Sigma) by centrifugation at 3000 g. The cells were then resuspended in Reconstruction buffer (0.2N NaOH solution with 2.2% (wt/vol) Sodium Bicarbonate and 4.8% (wt/vol) HEPES). One hundred fold dilutions of the suspended cells were prepared and counted using a hemocytometer on a bright field microscope. Following count, a suspension of cells was prepared in reconstruction buffer at a cell density of 5×10^7 cells/mL, which was diluted ten times by addition of 10×RPMI-1640 supplemented with L-glutamine and buffered with morpholinepropanesulfonic acid (Angus Buffers and Chemicals, Niagara Falls, N.Y.) containing collagen (1.8 mg/ml) (Type 1 from rat tail, BD Biosciences, Bedford, Mass.), to give a final concentration of cells of […]. The suspension containing yeast cells, collagen and media was printed (50 nL per spot) on the functionalized PSMA-coated glass slides using a microarray spotter (Omnigrid Micro, Digilab Inc., Holliston, Mass.). Printing was carried out by non-contact deposition using conically tapered 190μ orifice ceramic tips (Digilab). The resulting spots were approximately 700μ in diameter, spaced 1.2 mm apart; spots were printed in an array of 48 rows and 16 columns. In a standard print nm, the tips were primed, rinsed in running water and vacuum dried twice after each loading and printing step. The cell suspension was kept on ice to prevent the gelation of collagen before printing and agitated gently just prior to placement on the printing robot to ensure a uniformly mixed cell suspension. A relative humidity of 97% was maintained during printing to prevent the drying of the biofilm spots. All microarray operations such as aspiration, dispensing, priming, printing and spatial distribution of array were controlled by AxSys program (Digilab). All surfaces, including the source plate station, wash and vacuum station, vacuum slide platter and printing chamber were sterilized by wiping with 70% isopropanol. In our experience, these procedures ensure that there is no detectable contamination of wells in the plates or of spots on the microarray. After printing, the slides were placed inside humidifier chambers (Arraylt Corporation, Sunnyvale, Calif.), which were placed inside a 37 C incubator over different periods of time to allow for biofilm formation.
FUN 1 [2-chloro-4-(2,3-dihydro-3-methyl-(benzo-1,3-thiazol-2-yl)-methylidene)-1-phenylquinolinium iodide] (Invitrogen Corp., Carlsbad, Calif.) was used to stain and determine viability (levels of metabolic activity) of C. albicans cells within the biofilms formed in the chips. This membrane-permeable fluorescent dye is internalized and processed by metabolically active fungal cells, and has excitation and emission spectra that are compatible with the sets of lasers and filters installed in most microarray scanners. Briefly, the CaBChip was stained with 0.5 tM FUN 1, by simply dunking the entire CaBChip in a staining jar, and incubated in the dark at 37° C. for 30 min. Following incubation, the chip was washed three times by dunking in PBS in order to remove excess stain. The slides were then air-dried and scanned in a microarray scanner (Genepix Personal4100A, Axon Instruments, Union City, Calif.). […]

| Structure (SMILES) | susceptibility of biofilms formed on CaBChip (in words) | calculated IC50 (FUN 1 fluorescence, Hill equation fit) [µg/mL] | SMIC50 | SMIC80 | IC50 (Candida albicans, FUN 1 fluorescence, Hill equation fit, read-out: calculated IC50) [µg/mL] |
| --- | --- | --- | --- | --- | --- |
| C[C@@H]1[C@H](O)[C@@H](C)/C=C/C=C/C=C/C=C/C=C/C=C/C=C/[C@H](O[C@@H]2O[C@H](C)[C@@H](O)[C@H](N)[C@@H]2O)C[C@@H]2O[C@](O)(C[C@@H](O)C[C@@H](O)[C@H](O)CC[C@@H](O)C[C@@H](O)CC(=O)O[C@H]1C)C[C@H](O)[C@H]2C(=O)O [amphotericin B] | effective against biofilms formed on CaBChip, but only at relatively high concentrations | 0.27 ± 0.04 | 0.5 µg/mL | 1 µg/mL | – |
| OC(Cn1cncn1)(Cn1cncn1)c1ccc(F)cc1F [fluconazole] | intrinsically resistant to fluconazole | – | > 1,024 μg/ml | > 1,024 μg/ml | > 1020 |
